Key:
[1] = human subjects; cited from earlier work
LNCaP cells = test: Co-transfection luciferase assay with 10 nM R1881 (Example 2); assay type: cell-based, human; details: charcoal-stripped serum
Experimental: We performed transient transfections 24 hours later using Tfx-50 (Promega) with a lipid:DNA ratio of 4:1. Each transfection mixture contained 0.5 μg of the effector and reporter plasmids or reporter plasmid alone with pGL3B carrier DNA. Methylenetrienolone (R1881; NEN Life Science Products, Boston, Mass.) was added to the medium at a concentration of 10 nM/well one hour following transfection, and the cells were incubated for 48 h. The cells were harvested and lysed using the passive lysis buffer provided in the assay kit for measuring FL activities (Dual-Reporter Luciferase Assay System, Promega).

With Nc1nc(=O)c2ncn(CCC(CO)C[18F])c2[nH]1 (stereo not drawn) [[^18F]FHBG, 9-(4-[18F]-fluoro-3-hydroxymethylbutyl)guanine] as the compound, how does the blood-brain-barrier penetration [1] read?
The blood-brain-barrier penetration was “does not significantly cross the blood-brain-barrier”.

Which blood-brain-barrier penetration [1] does the source give for O=c1[nH]c(=O)n([C@@H]2O[C@H](CO)[C@@H](O)[C@@H]2F)cc1[125I] [[^124I]FIAU, 2′-fluoro-2′-deoxy-1-β-D-arabinofuranosyl-5-iodo-uracil] here?
Its blood-brain-barrier penetration is “cannot penetrate the blood brain barrier”.

For CC(O)(CS(=O)(=O)c1ccc(F)cc1)C(=O)Nc1ccc(C#N)c(C(F)(F)F)c1 (stereo not drawn) [casodex, reference compound], which “basal activity of the PSA enhancer constructs” value (LNCaP cells) is on record?
The value was “further reduced”.

Source: US7527942B2, “Transcription amplification system for molecular imaging” (The Regents of the University of California, priority 2002, dated 2009)
